Structures can show the parent of a compound that is named as a salt.
Assays:
[1] = test system: Cellular Class IIa HDAC activity; test: Inhibition of cellular Class IIa HDAC activity; Cell (Lys-TFA) substrate, Jurkat E6-1 cells; assay type: cell-based; settings: Boc-Lys(TFA)-AMC substrate
Excerpt: Example 29: Analysis of Inhibition of Cellular Class IIa HDAC Activity with Class IIa Histone Deacetylase (HDAC) Inhibitors; Cell (Lys-TFA) Substrate
(§1) The potency of Class IIa Histone Deacetylase (HDAC) inhibitors was quantified by measuring the cellular histone deacetylase enzymatic activity using the fluorogenic substrate, Boc-Lys(TFA)-AMC. After penetration in Jurkat E6-1 cells, the substrate was deacetylated to Boc-Lys-AMC. After cell lysis and cleavage by trypsin, the fluorophore AMC was released from the deacetylated substrate only. The fluorescence of the sample was directly related to the histone deacetylase activity in the sample.
Jurkat E6.1 Cell Culture and Plating.
(§2) Jurkat E6.1 cells were cultured according to standard cell culture protocols in Jurkat E6.1 Growth Media (RPMI without phenol red, 10% FBS, 10 mM HEPES, and 1 mM Sodium Pyruvate). Jurkat E6.1 cells were counted using a Coulter Counter and resuspended in Jurkat E6.1 growth media at a concentration of 75,000 cells/35 μL. 35 μL or 75,000 cells was seeded into Greiner microtitre assay plates. The plates were then incubated at 37° C. and 5% CO2 while other assay components were being prepared.
(§3) Serially Dilute HDAC Inhibitor Compounds.
(§4) Serial dilutions of the HDAC inhibitors and control reference compound (1-(5-(3-((4-(1,3,4-oxadiazol-2-yl)phenoxy)methyl)-1,2,4-oxadiazol-5-yl)thiophen-2-yl)-2,2,2-trifluoroethanone) were made by first resuspending the lyophilized compound to a final concentration of 10 mM in 100% DMSO. Stocks of 70 μL aliquots of the 10 mM compound in DMSO were prepared and stored at −20° C. From one stock aliquot of each tested compound and the reference compound, a 16-point serial dilution was prepared according to Table 1 using a 125 μL 16-channel Matrix multi-channel pipette.
(§5) 2 μL (200×) of each diluted solution and each control (full activity: 100% DMSO alone or full inhibition 1 mM) was stamped into V-bottom polypropylene 384-well compound plates using either the Bravo, Janus, or 12.5 μL 16-channel Matrix multi-channel pipette. Each well with the 200× compound solution was diluted 1:20 by the addition of 38 μL Jurkat assay buffer+DMSO (9.5% DMSO, RPMI without phenol red, 0.09% FBS, 9 mM Hepes, and 0.9 mM Sodium Pyruvate equilibrated to r.t.)
Prepare 5× (500 μM) Boc-Lys(TFA)-AMC Substrate.
(§6) 5× (500 μM) substrate was prepared just prior to the addition to the assay. The 5× substrate was prepared by diluting a 100 mM Boc-Lys(TFA)-AMC in DMSO solution 1:200 by adding it drop-wise to Jurkat assay medium (RPMI without phenol red, 0.1% FBS, 10 mM Hepes, and 1 mM Sodium Pyruvate equilibrated to 37° C.) while vortexing at slow speed to prevent precipitation.
(§7) 10 mL of 3× lysis buffer was prepared with 8.8 mL of 3× stock lysis buffer (50 mM Tris-HCl, pH 8.0, 137 mM NaCl, 2.7 mM KCl, 1 mM MgCl2, 1% Nonidet P40 Substitute equilibrated to r.t.) and 1.2 mL of 3 mg/mL Trypsin equilibrated to r.t.
(§8) 5 μL of each solution of 1:20 diluted compound from above was transferred to the Greiner microtitre assay plates with 75,000 cells/well using the Bravo. Cells were then incubated for 2 hours at 37° C. and 5% CO2. The assay was then started by adding 10 μL of 5× (500 μM) substrate to the assay plate using either the Bravo or 16-channel Matrix multi-channel pipette. The cells were then incubated for 3 hours at 37° C. and 5% CO2. Next, 25 μL of 3× lysis buffer was added to each well using either the 125 μL 16 channel pipette or the Bravo. The assay plate was then incubated overnight (15-16 hours) at 37° C. and 5% CO2. The following day, the plates were shaken on an orbital shaker for 1 minute at 900 rpm. Finally the top read fluorescence (Excitation: 355 nm, Emission: 460 nm) was measured using PerkinElmer EnVision.

[2] = molecular target: human catalytic domain HDAC4 protein (amino acids 648-1032) (Homo sapiens (Human), UniProt P56524); test: HDAC4 catalytic domain enzymatic activity, fluorogenic substrate Boc-Lys(TFA)-AMC; settings: read-out: HDAC4 Biochemical IC50
Excerpt: Example 25: Analysis of Inhibition of HDAC4 with Class IIa Histone Deacetylase (HDAC) Inhibitors
The potency of Class IIa Histone Deacetylase (HDAC) inhibitors was quantified by measuring the Histone Deacetylase 4 (HDAC4) catalytic domain enzymatic activity using the fluorogenic substrate, Boc-Lys(TFA)-AMC. The substrate was deacetylated to Boc-Lys-AMC by HDAC4. […] The fluorescence of the sample was directly related to the histone deacetylase activity in the sample.
as §3
as §4, with “dimethyl sulfoxide (DMSO).” for “DMSO.”, “60” for “70”, “pipette (Matrix Technologies Ltd).” for “pipette.”
2 μL (200×) of each diluted solution and each control (full activity: 100% DMSO alone or full inhibition 1 mM) was stamped into V-bottomed polypropylene 384-well compound plates using either the Bravo (384-well head from Agilent) or 12.5 μL 16-channel Matrix multi-channel pipette (Matrix Technologies Ltd). Each well with the 200× compound solution was diluted 1:20 by the addition of 38 μL assay buffer+DMSO (10.5% DMSO, 45 mM Tris-HCl, 123 mM NaCl, 2.4 mM KCl, and 0.9 mM MgCl2 at pH 8.0 and equilibrated to r.t.).
Prepare HDAC4 Catalytic Domain Enzyme (0.2 μg/mL).
The HDAC4 catalytic domain enzyme was human catalytic domain HDAC4 protein (amino acids 648-1032) with a C-terminal 6× histidine tag, produced by BioFocus. A working solution of enzyme was prepared from a […] stock aliquot of HDAC4 catalytic domain (thawed on ice) diluted to 0.2 μg/mL with assay buffer (50 mM Tris-HCl, 137 mM NaCl, 2.7 mM KCl, and 1 mM MgCl2 at pH 8 and equilibrated to r.t.) just prior to the addition of the enzyme to the assay.
Prepare 5× (50 μM) Boc-Lys(TFA)-AMC Substrate.
5× (50 μM) substrate was prepared just prior to the addition to the assay. A 1 mM substrate stock was made by diluting a 100 mM Boc-Lys(TFA)-AMC in DMSO solution 1:100 by adding it drop-wise to assay buffer (equilibrated to r.t.) while vortexing at slow speed to prevent precipitation. The 5× substrate was prepared by diluting the 1 mM substrate solution 1:20 by adding it drop-wise to assay buffer (equilibrated to r.t.) while vortexing at slow speed to prevent precipitation.
Prepare 3× (30 μM) Developer/Stop Solution.
3× (30 μM) Developer/Stop Solution was prepared just prior to addition to the plate by diluting a stock solution of 10 mM reference compound 1:333 in 25 mg/mL trypsin (PAA Laboratories Ltd.) equilibrated to r.t.
5 μL of each solution of 1:20 diluted compound from above was transferred to a clear bottomed, black, 384-well assay plate using the Bravo or the Janus (384-well MDT head from Perkin Elmer). Using a 16-channel Matrix multi-channel pipette, 35 μL of the working solution of HDAC4 catalytic domain enzyme (0.2 μg/mL in assay buffer) was transferred to the assay plate. The assay was then started by adding 10 μL of 5× (50 μM) substrate to the assay plates using either the Bravo, Janus or 16-channel Matrix multi-channel pipette. The assay plate was then shaken for two minutes on an orbital shaker at 900 rpm (rotations per minute). Next the plate was incubated for 15 minutes at 37° C. The reaction was stopped by adding 25 μL of 3× (30 μM) developer/stop solution to the assay plates using either the Bravo, Janus or a 16-channel Matrix multi-channel pipette. Assay plates were then shaken for 5 minutes on an orbital shaker at 1200 rpm. Next, the assay plates were incubated at 37° C. for 1 hour in a tissue culture incubator. […]

[3] = test system: Cellular Class I HDAC activity; test: Inhibition of cellular Class I HDAC activity; Cell (Lys-Ac) substrate, Jurkat E6-1 cells; assay type: cell-based; settings: Boc-Lys(Ac)-AMC substrate
Excerpt: as §1, §2, §4, §5, §6, §7, §8
Example 30: Analysis of Inhibition of Cellular Class I HDAC Activity with Class IIa Histone Deacetylase (HDAC) Inhibitors; Cell (Lys-Ac) Substrate
The Class I HDAC activity of Class IIa Histone Deacetylase (HDAC) inhibitors was quantified by measuring the cellular histone deacetylase enzymatic activity using the fluorogenic substrate, Boc-Lys(Ac)-AMC. This was performed according to the procedure in Example 29, using Boc-Lys(Ac)-AMC substrate in place of Boc-Lys(TFA)-AMC.

Sequence of human catalytic domain HDAC4 protein (amino acids 648-1032) (P56524 648-1032): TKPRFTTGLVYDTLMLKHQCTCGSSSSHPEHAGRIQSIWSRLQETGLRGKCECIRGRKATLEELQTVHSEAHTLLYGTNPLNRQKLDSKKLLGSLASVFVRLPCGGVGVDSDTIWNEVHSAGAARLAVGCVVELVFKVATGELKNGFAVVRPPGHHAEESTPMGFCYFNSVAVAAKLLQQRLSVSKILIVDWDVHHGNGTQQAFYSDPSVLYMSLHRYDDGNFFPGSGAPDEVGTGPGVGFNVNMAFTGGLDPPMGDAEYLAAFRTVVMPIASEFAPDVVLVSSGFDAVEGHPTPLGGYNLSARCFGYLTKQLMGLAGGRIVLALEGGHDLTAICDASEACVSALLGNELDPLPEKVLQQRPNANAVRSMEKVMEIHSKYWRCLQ

C[C@H](CN1CCCCCC1)NC(=O)c1ccc(-c2noc(C(F)(F)F)n2)cc1 [Example 13, (R)—N-(1-(Azepan-1-yl)propan-2-yl)-4-(5-(trifluoromethyl)-1,2,4-oxadiazol-3-yl)benzamide]
IC50 [1]: 30 nM
IC50 [2]: 11 nM
IC50 [3]: 1700 nM

C[C@H](CN1CCC12CCC2)NC(=O)c1ccc(-c2noc(C(F)(F)F)n2)cc1 [Example 14, (R)—N-(1-(1-Azaspiro[3.3]heptan-1-yl)propan-2-yl)-4-(5-(trifluoromethyl)-1,2,4-oxadiazol-3-yl)benzamide]
IC50 [1]: 180 nM
IC50 [2]: 16 nM
IC50 [3]: 7700 nM

C[C@H](CN1CCC2(CC2)C1)NC(=O)c1ccc(-c2noc(C(F)(F)F)n2)cc1 [Example 15, (R)—N-(1-(5-Azaspiro[2.4]heptan-5-yl)propan-2-yl)-4-(5-(trifluoromethyl)-1,2,4-oxadiazol-3-yl)benzamide]
IC50 [1]: 69 nM
IC50 [2]: 8 nM
IC50 [3]: 5100 nM

C[C@H](CN1CC2CCC(C2)C1)NC(=O)c1ccc(-c2noc(C(F)(F)F)n2)cc1 [Example 16, N-((2R)-1-(3-Azabicyclo[3.2.1]octan-3-yl)propan-2-yl)-4-(5-(trifluoromethyl)-1,2,4-oxadiazol-3-yl)benzamide]
IC50 [1]: 12 nM
IC50 [2]: 7 nM
IC50 [3]: 890 nM

C[C@H](CN1CC2CCCC2C1)NC(=O)c1ccc(-c2noc(C(F)(F)F)n2)cc1 (stereo partly drawn) [Example 17, 2-((R)-2-(4-(5-(Trifluoromethyl)-1,2,4-oxadiazol-3-yl)benzamido)propyl)octahydrocyclopenta[c]pyrrol-2-ium formate]
IC50 [1]: 28 nM
IC50 [2]: 12 nM
IC50 [3]: 690 nM

C[C@H](CN1CCc2ccncc2C1)NC(=O)c1ccc(-c2noc(C(F)(F)F)n2)cc1 [Example 18, (R)—N-(1-(3,4-dihydro-2,7-naphthyridin-2(1H)-yl)propan-2-yl)-4-(5-(trifluoromethyl)-1,2,4-oxadiazol-3-yl)benzamide]
IC50 [1]: 190 nM
IC50 [2]: 6 nM
IC50 [3]: 12700 nM

C[C@H](CN1CC2CCC2C1)NC(=O)c1ccc(-c2noc(C(F)(F)F)n2)cc1 (stereo partly drawn) [Example 19, N-((2R)-1-(3-Azabicyclo[3.2.0]heptan-3-yl)propan-2-yl)-4-(5-(trifluoromethyl)-1,2,4-oxadiazol-3-yl)benzamide]
IC50 [1]: 9 nM
IC50 [2]: 4 nM
IC50 [3]: 1100 nM

C[C@H](CN1CC2C(C1)C2(C)C)NC(=O)c1ccc(-c2noc(C(F)(F)F)n2)cc1 (stereo partly drawn) [Example 22, N-((2R)-1-(6,6-Dimethyl-3-azabicyclo[3.1.0]hexan-3-yl)propan-2-yl)-4-(5-(trifluoromethyl)-1,2,4-oxadiazol-3-yl)benzamide]
IC50 [1]: 86 nM
IC50 [2]: 20 nM
IC50 [3]: 6100 nM

C[C@H](CN1CCC[C@@H]1C)NC(=O)c1ccc(-c2noc(C(F)(F)F)n2)c(F)c1 [Example 23, (2S)-1-((R)-2-(3-Fluoro-4-(5-(trifluoromethyl)-1,2,4-oxadiazol-3-yl)benzamido)propyl)-2-methylpyrrolidin-1-ium formate]
IC50 [1]: 72 nM
IC50 [2]: 9 nM
IC50 [3]: 21400 nM

C[C@H](CN1CCC[C@@H]1C)NC(=O)c1ccc(-c2noc(C(F)(F)F)n2)cn1 [Example 24, N—((R)-1-((S)-2-Methylpyrrolidin-1-yl)propan-2-yl)-5-(5-(trifluoromethyl)-1,2,4-oxadiazol-3-yl)picolinamide]
IC50 [1]: 1030 nM
IC50 [2]: 134 nM
IC50 [3]: 33700 nM
